Experimental findings from patent publication US10703748B2, “Diazanaphthalen-3-yl carboxamides and preparation and use thereof” (Samumed, LLC, priority 2017, dated 2020) are described below.

Assay [1] concerns SW480 colon carcinoma cells. The assay can be described thus: Cell viability assay (CellTiter-Glo). The note with it: Homo sapiens; for EC50: SW480, 96 h; for inhibition at 10 µM: SW480, read-out: percent inhibition at 10 μM. Background: ATP-based viability assays read luminescence as a measure of living cells.
The target of a further assay is GSK3β kinase (Homo sapiens, UniProt P49841). The assay can be described thus: GSK3β kinase activity (Ser/Thr 09 peptide Z-lyte FRET assay). The settings on record: recombinant kinase, 46 μM ATP, one hour at room temperature; read-out: EC50. In kind it is biochemical.
Sequence of GSK3β kinase (P49841 whole entry): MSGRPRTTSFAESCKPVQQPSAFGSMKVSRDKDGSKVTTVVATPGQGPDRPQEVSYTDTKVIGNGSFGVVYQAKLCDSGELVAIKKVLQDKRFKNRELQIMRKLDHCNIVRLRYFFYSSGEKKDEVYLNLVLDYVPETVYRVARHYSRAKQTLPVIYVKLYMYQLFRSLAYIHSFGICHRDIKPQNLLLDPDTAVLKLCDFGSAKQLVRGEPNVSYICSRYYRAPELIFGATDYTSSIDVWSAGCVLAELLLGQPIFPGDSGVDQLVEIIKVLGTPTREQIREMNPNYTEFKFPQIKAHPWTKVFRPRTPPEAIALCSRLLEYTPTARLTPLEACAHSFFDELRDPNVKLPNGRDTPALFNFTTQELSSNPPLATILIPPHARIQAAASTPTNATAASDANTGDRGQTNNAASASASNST
For the next assay, the target named is DYRK1A kinase (Homo sapiens, UniProt Q13627). The assay is described as follows: DYRK1A kinase activity (Ser/Thr 18 peptide Z-lyte FRET assay).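 Note: kinase activity read as coumarin/fluorescein emission ratio after development step, with unphosphorylated and phosphorylated peptide forms setting 0% and 100% controls, values from dose-response curves.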 Format: biochemical. The note with it: recombinant DYRK1A, 30 μM ATP, one hour at room temperature.
For assay [2], the system named is α-smooth muscle actin (aSMA) positive LL29 cells. The assay can be described thus: Inhibition of the fibrotic process: αSMA staining in TGF-β1 treated LL29 fibroblasts from IPF patients. The settings on record: Homo sapiens, Fibroblast; for EC50: 96 h; for inhibition at 10 µM: read-out: percentage in parentheses after EC50 >10.
Assay [3] has as its system Wnt-responsive Sp5-Luc reporter in SW480 colon carcinoma cells. The assay is described as follows: Screening assay for Wnt activity (Sp5-Luc reporter gene assay). The settings on record: Homo sapiens; for EC50: SW480; for inhibition at 10 µM: SW480, read-out: percent inhibition at 10 μM. On the technique in general: Reporter assays use an easily measured gene product as a stand-in for the process of interest.

Another assay relates to IL-6. The assay can be described thus: IL-6 inhibition in LPS-stimulated human peripheral blood mononuclear cells (HTRF). The settings on record: Homo sapiens, PBMC; for EC50: 22 h; for inhibition at 10 µM: read-out: percentage in parentheses after EC50 >10.

Broadly, the EC50 is the concentration giving half of the maximal effect. As to `Cn1cncc1-c1ccc2cnc(NC(=O)c3ccc(F)cc3)cc2n1` [Compound 448, 4-Fluoro-N-(2-(1-methyl-1H-imidazol-5-yl)-1,6-naphthyridin-7-yl)benzamide], the EC50 was above 10 µM in assay [1]; above 10 µM at GSK3β kinase; above 10 µM on DYRK1A kinase; above 10 µM in assay [2]; above 10 µM in assay [3]; 5.13 µM in the assay with IL-6. Moreover, the inhibition at 10 µM in assay [1] amounted to 16.2%; in assay [2] it was 23%; in assay [3], 2.8%.

For `CO[C@H]1CC[C@H](C(=O)Nc2cc3cc(-c4nnc(C)s4)cnc3cn2)CC1` [Compound 3425, trans-4-Methoxy-N-(3-(5-methyl-1,3,4-thiadiazol-2-yl)-1,7-naphthyridin-6-yl)cyclohexane-1-carboxamide], the EC50 in assay [1] is above 10 µM; at GSK3β kinase, 2.29 µM; at DYRK1A kinase it was 0.157 µM; in assay [2] it was above 10 µM; in assay [3] it was above 10 µM; with IL-6 it was above 10 µM. Also, the inhibition at 10 µM in assay [1] was 29.9%; in assay [2] it was 19.3%; in assay [3] it was 0%; with IL-6 it was 9%.

For the molecule `Cc1nnc(-c2ccc3cnc(NC(=O)CN4C5CCC4COC5)nc3c2)s1` [Compound 1634, 2-(3-Oxa-8-azabicyclo[3.2.1]octan-8-yl)-N-(7-(5-methyl-1,3,4-thiadiazol-2-yl)quinazolin-2-yl)acetamide], the EC50 in assay [1] is above 10 µM; at GSK3β kinase, 0.224 µM; on DYRK1A kinase, 0.342 µM; in assay [2], above 10 µM; in assay [3] it was above 10 µM; with IL-6 it was above 10 µM. Moreover, the inhibition at 10 µM came to 13.7% in assay [1], 18.3% in assay [2], 16.4% in assay [3] and 5.4% with IL-6.

As for `Cn1cc(-c2cnc3cnc(NC(=O)c4ccc5nccnc5c4)cc3c2)cn1` [Compound 2936, N-(3-(1-Methyl-1H-pyrazol-4-yl)-1,7-naphthyridin-6-yl)quinoxaline-6-carboxamide], the EC50 (in assay [1]; at GSK3β kinase; at DYRK1A kinase; in assay [2]; in assay [3]; in the assay with IL-6) was above 10 µM each time. Moreover, the inhibition at 10 µM stood at 17.8% in assay [1], 21.6% in assay [2], 11.9% in assay [3] and 8.3% in the assay on IL-6.

Consider `Cn1cncc1-c1ccc2cnc(NC(=O)C3CCC(F)(F)CC3)cc2n1` [Compound 400, 4,4-Difluoro-N-(2-(1-methyl-1H-imidazol-5-yl)-1,6-naphthyridin-7-yl) cyclohexane-1-carboxamide], for which the EC50 in assay [1] stood at 2.37 µM; on GSK3β kinase, 0.036 µM; on DYRK1A kinase, 0.121 µM; in assay [2], 1.48 µM; in assay [3], 1.35 µM; with IL-6, 3.66 µM.

As for `CNC(=O)c1ccc(C(=O)Nc2cc3cc(-c4cn(C)nn4)cnc3cn2)cn1` [Compound 3092, N^2-Methyl-N-(3-(1-methyl-1H-1,2,3-triazol-4-yl)-1,7-naphthyridin-6-yl) pyridine-2,5-dicarboxamide], the EC50 in assay [1] is above 10 µM; at GSK3β kinase, above 10 µM; on DYRK1A kinase, 0.269 µM; in assay [2], above 10 µM; in assay [3] it was 2.28 µM; in the assay on IL-6, above 10 µM. Moreover, the inhibition at 10 µM in assay [1] is 10.5%; in assay [2], 13.3%; in the assay on IL-6, 7.4%.

`CCN(CC)CC(=O)Nc1cc2nc(-c3cnn(C)c3CN3CCCCC3)ccc2cn1` [Compound 283, 2-(Diethylamino)-N-(2-(1-methyl-5-(piperidin-1-ylmethyl)-1H-pyrazol-4-yl)-1,6-naphthyridin-7-yl)acetamide]: the EC50 is 4.24 µM in assay [1]; 1.18 µM at GSK3β kinase; 0.698 µM on DYRK1A kinase; 3.91 µM in assay [2]; above 10 µM in assay [3]; above 10 µM with IL-6. Also, the inhibition at 10 µM was 43.6% in assay [3] and 7.4% in the assay with IL-6.

Regarding `Cn1cc(-c2ccc3cnc(NC(=O)C4CCN(CC5(C)COC5)CC4)nc3c2)nn1` [Compound 1254, N-(7-(1-Methyl-1H-1,2,3-triazol-4-yl)quinazolin-2-yl)-1-((3-methyloxetan-3-yl)methyl)piperidine-4-carboxamide], the EC50 in assay [1] was above 10 µM; on GSK3β kinase, 0.069 µM; at DYRK1A kinase it was 0.104 µM; in assay [2], 6.97 µM; in assay [3] it was above 10 µM; with IL-6, above 10 µM. In addition, the inhibition at 10 µM in assay [1] turned out to be 11.2%; in assay [3], 31.7%; in the assay with IL-6, 3.8%.

With `CNC(=O)c1ccc(C(=O)Nc2cc3nc(-c4cn(C)nn4)ccc3cn2)cn1` [Compound 372, N^2-Methyl-N^5-(2-(1-methyl-1H-1,2,3-triazol-4-yl)-1,6-naphthyridin-7-yl) pyridine-2,5-dicarboxamide], the EC50 in assay [1] was above 10 µM; on GSK3β kinase, 0.255 µM; on DYRK1A kinase it was 0.067 µM; in assay [2], 3.64 µM; in assay [3] it was above 10 µM; with IL-6, above 10 µM. Moreover, the inhibition at 10 µM in assay [1] turned out to be 23.2%; in assay [3], 48.7%; in the assay with IL-6, 0%.

Consider `CC(C(=O)Nc1ncc2ccc(-c3cnn(C)c3)cc2n1)N1CCCCC1` (centres unmarked) [Compound 978, N-(7-(1-Methyl-1H-pyrazol-4-yl)quinazolin-2-yl)-2-(piperidin-1-yl)propanamide], for which the EC50 was above 10 µM in assay [1]; 0.087 µM at GSK3β kinase; 0.171 µM at DYRK1A kinase; 2.73 µM in assay [2]; above 10 µM in assay [3]; above 10 µM in the assay with IL-6. Further, the inhibition at 10 µM in assay [1] was 50%; in assay [3], 37.2%; with IL-6, 6.9%.

Consider `CN1CC(COc2cncc(-c3ccc4cnc(NC(=O)c5ccc(F)cc5)cc4n3)n2)C1` [Compound 4564, 4-fluoro-N-(2-(6-((1-methylazetidin-3-yl)methoxy)pyrazin-2-yl)-1,6-naphthyridin-7-yl)benzamide], for which the EC50 was above 10 µM in assay [1]; above 10 µM at GSK3β kinase; 1.03 µM on DYRK1A kinase; above 10 µM in assay [2]; above 10 µM in assay [3]; above 10 µM in the assay on IL-6. For the same molecule, the inhibition at 10 µM in assay [1] was 21.1%; in assay [2] it was 26.8%; in assay [3], 33.3%; in the assay on IL-6, 0%.

In the case of `CC(C)Oc1ccc(C(=O)Nc2ncc3ccc(-c4cnc5n4CCN(C)C5)cc3n2)cc1` [Compound 4577, 4-Isopropoxy-N-(7-(7-methyl-5,6,7,8-tetrahydroimidazo[1,2-a]pyrazin-3-yl)quinazolin-2-yl)benzamide], the EC50 in assay [1] is above 10 µM; on GSK3β kinase, above 10 µM; on DYRK1A kinase, 0.175 µM; in assay [2], above 10 µM; in assay [3], above 10 µM; in the assay on IL-6, above 10 µM. The inhibition at 10 µM in assay [1] worked out at 19.7%; in assay [2], 42.7%; in assay [3], 28.9%; in the assay with IL-6, 2.6%.

Regarding `Cn1cc(-c2ccc3cnc(NC(=O)[C@H]4CC[C@H](NC(=O)OC(C)(C)C)CC4)cc3n2)cn1` [Compound 4537, tert-Butyl (trans-4-((2-(1-methyl-1H-pyrazol-4-yl)-1,6-naphthyridin-7-yl)carbamoyl)cyclohexyl)carbamate], the concentration giving a half-maximal response (EC50) in assay [1] was above 10 µM; on GSK3β kinase, 0.543 µM; at DYRK1A kinase it was 0.035 µM; in assay [2], 5.27 µM; in assay [3] it was above 10 µM; in the assay with IL-6, above 10 µM. The values for the inhibition at 10 µM (in assay [1]; in assay [3]; in the assay on IL-6) were 4.7%, 25.3% and 3%, respectively.

Turning to `CC(F)(F)CN1CCC(C(=O)Nc2cc3cc(-c4cnco4)ncc3cn2)CC1` [Compound 4167, 1-(2,2-Difluoropropyl)-N-(6-(oxazol-5-yl)-2,7-naphthyridin-3-yl)piperidine-4-carboxamide], the EC50 was above 10 µM in assay [1]; 0.127 µM at GSK3β kinase; 3.2 µM on DYRK1A kinase; above 10 µM in assay [2]; above 10 µM in assay [3]; above 10 µM in the assay with IL-6. Moreover, the inhibition at 10 µM in assay [1] was 11.9%; in assay [2], 43%; in assay [3] it was 8.9%; in the assay on IL-6, 4.9%.

As to `CN1CCc2ccc(C(=O)Nc3cc4cc(-c5cnn(C)c5)cnc4cn3)cc2C1` [Compound 2922, 2-Methyl-N-(3-(1-methyl-1H-pyrazol-4-yl)-1,7-naphthyridin-6-yl)-1,2,3,4-tetrahydroisoquinoline-7-carboxamide], the EC50 was above 10 µM in assay [1]; above 10 µM at GSK3β kinase; 0.036 µM at DYRK1A kinase; above 10 µM in assay [2]; 2.42 µM in assay [3]; above 10 µM in the assay with IL-6. For the same molecule, the values for the inhibition at 10 µM (in assay [1]; in assay [2]; with IL-6) were 28.8%, 47.2% and 3.8%, respectively.
